Experimental data from patent US4648996A, “Phenyl substituted-2,4,6,8-nonatetraenoic acid” (Hoffmann-La Roche Inc., priority 1985, dated 1987).

Tests used:
in vivo = conditions: mouse
Description: The compounds of formulae I and II and salts thereof can be utilized to treat patients suffering from rheumatoid arthritis and related disorders.

[1] = tested on: MBSA delayed hypersensitivity in mice; assay: Delayed hypersensitivity to methylated bovine serum albumin (MBSA); type: in vivo, Male and female MFI mice substrain E33; conditions: for % increase paw volume / % reduction (cf. arachis oil control): 10 doses
Procedure: Male and female MFI mice substrain E33. Initial weight approximately 25 gm.
Dosing with vehicle and retinoid commenced on day 0 and finished on day 9.
Each group consisted of 4 male and 6 female mice (separately caged). Drugs were dosed orally at a dose volume of 10 ml.kg^-1 (10 doses).

[2] = tested on: type II collagen arthritis in rats; assay: Established type II collagen arthritis; type: in vivo, Male and female Alderley Park Strain 1 rats; conditions: for Paw Vol / wt / GAG (urine glycosaminoglycans): 100 mg.kg^-1 p.o.
Procedure: Male and female Alderley Park Strain 1 rats.
Type 2 collagen (prepared from bovine nasal septum cartilage), Freunds incomplete adjuvant (Difco).
Rats were sensitized to type 2 collagen by injecting them intradermally with 1 ml. of a water in oil emulsion consisting of equal parts of a 1 mg.ml^-1 solution of type 2 collagen in 0.45M NaCl, 0.02M Tris, pH 7.4 and Freunds incomplete adjuvant. Rats developing arthritis were allocated on day 15 post sensitization to a control arachis oil treated group (6 male, 4 female) or to the Compound A treated group (6 male, 5 female). Hind paw volume measurements were taken to ensure even distribution of rats between groups. An overnight collection of urine was made on days 15/16 and dosing commenced on day 16. These urine samples were analyzed for glycosaminoglycans (GAG). Compound A was dosed at 100 mg.kg^-1 p.o. On days 19/20 a second overnight collection of urine was made. These urine samples were analyzed for glycosaminoglycans (GAG). On day 20 a second hind paw measurement was taken. Rats were then anaesthetised with sodium pentobarbitone, bled, killed and X-rays taken of hind and forepaws. Rats were dosed on days 16-19 inclusive (4 doses).

[3] = tested on: established adjuvant arthritis in rats; assay: Effect on the course of established adjuvant arthritis; type: in vivo, Male Lewis rats from Charles River; conditions: 100 mg/kg, 7 days
Procedure: Male Lewis rats from Charles River were used for these experiments.
Heat-killed, dessicated Mycobacteriam butyricum.
Adjuvant arthritis was induced by the injection of 0.1 ml of adjuvant [a suspension of heat-killed, dessicated Mycobacterium butyricum, 0.5% CW/V) in heavy mineral oil containing 0.2% digitonin] into the base of the tail. The arthritis was allowed to develop for 21 days and then the volume of both hind paws were measured using a mercury plethysmograph. The rats were divided into groups of 8 with equal mean paw volumes and then the rats were treated with Compound A, indomethacin (as a control drug), or vehicle for 7 days at the end of the treatment period, the volumes of both hind paws were again measured to assess antiinflammatory effects. Body weight changes were also followed and, at the end of the experiment, plasma was collected for determination of plasma fibrinogen (Exner et. al., Amer. J. Clin. Path, 71: 521-527).
^b Drugs were administered once a day for 7 days by intubation
^c Change in paw volume/body weight equals paw volume body weight on […]

## CCCCCCCCCOc1ccccc1/C=C/C(C)=C/C=C/C(C)=C/C(=O)O [Compound A, All(E)-9-[2(nonyloxy)phenyl]-3,7-dimethyl-2,4,6,8-nonatetraenoic acid]
In vivo; ip
  LD50: > 1000 mg/kg
In vivo; po
  LD50: > 1000 mg/kg
[1]; 10 mg.kg^-1 oral
  % increase paw volume: 102 ± 12%
  % reduction (cf. arachis oil control): 6%
[1]; 10 mg.kg^-1 oral, female (F)
  Mean body weight change: -0.2 g
[1]; 10 mg.kg^-1 oral, male (M)
  Mean body weight change: 3.3 g
[1]; 30 mg.kg^-1 oral
  % increase paw volume: 50 ± 7%
  % reduction (cf. arachis oil control): 54%
[1]; 30 mg.kg^-1 oral, female (F)
  Mean body weight change: 0.5 g
[1]; 30 mg.kg^-1 oral, male (M)
  Mean body weight change: 2.8 g
[1]; 100 mg.kg^-1 oral
  % increase paw volume: 40 ± 5%
  % reduction (cf. arachis oil control): 63%
[1]; 100 mg.kg^-1 oral, female (F)
  Mean body weight change: -0.2 g
[1]; 100 mg.kg^-1 oral, male (M)
  Mean body weight change: 3.3 g
[2]; day 16 (start of dosing)
  Paw Vol: 2.44 ± 0.08
  wt: 247 ± 14 g
[2]; day 16 (urine days 15/16)
  GAG (urine glycosaminoglycans): 1586 ± 307 µg
[2]; day 20 (urine days 19/20)
  GAG (urine glycosaminoglycans): 634 ± 72 µg
[2]; day 20, after 4 doses
  Paw Vol: 2.66 ± 0.06
  wt: 229 ± 10 g
[2]; male and female rats, 100 mg.kg^-1
  weight during treatment (in words): lost weight
[3]
  Plasma Fibrinogen: 874 ± 57 mg/dL
[3]; day 28 minus day 22
  Change in Body Weight: 5.2 ± 2.1 g
[3]; day 28 minus day 22, both hind paws
  Change in Paw Volume: -0.96 ± 0.10 mL
